# Test results as given in patent US8557811B2, “Dual-color imaging method of sodium/calcium activities using two-photon fluorescent probes and preparation method of two-photon fluorescent probes” (Ajou University Industry—Academic Cooperation Foundation, priority 2010, dated 2013).
# “And” between values parts separate entries of the source, which are not always exact repeats. Equal entries are not always repeated.
# Columns and labels:
# [1] = Two-photon absorption cross section by femtosecond fluorescence spectroscopy; assay type: physicochemical; settings: for λ^(2)max two-photon excitation wavelength: with cation (BCa1 + Ca2+, ANa1 + Na+); for δΦ two-photon operational cross section: with cation (BCa1: MOPS buffer with excess Ca2+; ANa1 + Na+), error range ±15%
# Procedure: Two-photon operational emission δΦ of BCa1 in the MOPS buffer containing excess Ca^2+ was 150 GM at 780 nm, 3- to 5-fold improved over Calcium-Green-Ca^2+ or Fura-2-Ca^2+ (see FIG. 7). Thus, it can be seen that staining of cells with BCa1 can provide brighter TPM images as compared to other commercially available probes.
# TPA cross section (6) was measured by femtosecond (fs) fluorescence spectroscopy. BCa1 was dissolved in 30 mM MOPS buffer (2.5 mM CaCl2, 100 mM KCl, pH 7.2) to a concentration of 5.0×10^−6 M, and two-photon excited fluorescence (TPEF) was measured at 740 to 940 nm using fluorescein (8.0×10^−6M, pH=11). TPEF intensity of reference and sample was determined at the same excitation wavelength. TPA cross section was calculated by Equation 1. δ=δr(Ssφrfrcr)/(Srφsfscs) [Equation 1]
# In Equation 1, s and r respectively stand for sample and reference molecules, S represents the intensity of a signal collected by the CCD detector, Φ represents the fluorescence quantum yield, f represents the overall fluorescence collection efficiency of the experimental apparatus, c represents molecular density in the solution, and δr represents the TPA cross section of reference molecules.
# [2] = Fluorescence response of ANa1 to Na+ in buffer; assay type: binding
# [3] = Spectroscopic measurements (absorption, emission, fluorescence quantum yield); assay type: physicochemical; settings: for Φ fluorescence photon efficiency: error range ±10%
# Procedure: Absorption spectra were measured using a Hewlett-Packard 8453 diode array spectrophotometer, and fluorescence spectra were measured using an Amico-Bowman series 2 emission spectrometer having 1 cm standard quartz cell. Fluorescence quantum yield was determined using coumarin 307 (Φ=0.95 in MeOH) according to a previously known method.
# Normalized absorption spectra of BCa1 in 1,4-dioxane, EtOH, DMF and H2O are shown in FIG. 2 (a), and normalized emission spectra of BCa1 in 1,4-dioxane, EtOH, DMF and H2O are shown in FIG. 2 (b).
# [4] = in MeOH; cited from earlier work
# [5] = Effect of pH on one-photon fluorescence intensity; assay type: physicochemical
# Procedure: (§1) Relative fluorescence intensity of 1 μM BCa1 for various cations are shown in FIG. 6 (a), and the effect of pH on one-photon fluorescence intensity of BCa1 is shown in FIG. 6 (b). […] Thus, the probe allows selective detection of Ca^2+ without minimized interference from other biologically relevant cations.
# [6] = Fluorescence titration with free Ca2+ in MOPS buffer (one-photon and two-photon); assay type: binding
# Procedure: This is caused by the blocking of photo-induced electron transfer (PET) resulting from complexation with the metal ions.
# One-photon absorption curves of 1 μM BCa1 (30 mM MOPS, 100 mM KCl, pH 7.2) complex in the presence of free Ca^2+ are shown in FIG. 5 (a), one-photon and two-photon fluorescence titration curves are shown in FIG. 5 (b), and one-photon and two-photon Hill curves are shown in FIG. 5 (c).
# The dissociation constants of BCa1 for the one-photon and two-photon processes (K^OPd and K^TPd) were calculated from the fluorescence titration curves of FIG. 5 (b).
# [7] = Water solubility from fluorescence intensity versus dye concentration; assay type: physicochemical; settings: H2O with DMSO at 0.20; highest concentration in the linear region; excitation 360 nm
# Procedure: A stock solution (1.0×10^−2M) was prepared by dissolving the dye (BCa1) in DMSO. The solution was diluted (to 6.0×10^−3 to 6.0×10^−5 M) and transferred to a cuvette holding H2O (3.0 mL) using a microsyringe. In all cases, the concentration of DMSO in H2O was maintained at 0.20. […] The highest concentration in the linear region was determined as the solubility of BCa1, which was about 5.0 μM in water, being sufficient to stain cells.
# One-photon fluorescence spectra of BCa1 are shown in FIG. 1 (a), and the fluorescence intensity of BCa1 in H2O depending on concentrations is shown in FIG. 1 (b). Excitation wavelength was 360 nm.
# [8] = One-photon fluorescence of BCa1 with free Ca2+ in LUVs; assay type: binding; settings: LUVs of DOPC/sphingomyelin/CHL (1:1:1, raft mixture), free Ca2+ 2.5 mM, 25±0.5° C.
# Procedure: LUVs for the measurement of one-photon and two-photon spectra were prepared from a hydrated suspension of multilamellar vesicles by means of extrusion. Lipids were dissolved in CHCl3/MeOH (95/5 vol %) and then dried under N2 flow in vacuum. The resulting film was hydrated in MOPS buffer (30 mM MOPS, 100 mM KCl, pH 7.2) by shaking at 60° C. until the suspension became homogeneous. The mixture was subjected to 3 freeze-thaw cycles, and LUVs were extruded therefrom by passing through a membrane having 100 nm pores (Avanti Polar Lipids). To stain the vesicles, BCa1 dissolved in DMSO was added and then 30 minutes was allowed to pass. The proportion of the vesicles to the probe was 300:1. Temperature was measured using a digital thermometer having a precision of 0.1° C.
# One-photon fluorescence spectra of complexes of free Ca^2+ (0 to 2.5 mM) and 1 μM BCa1 for LUVs composed of DOPC/sphingomyelin/cholesterol (1:1:1, raft mixture) are shown in FIG. 8 (a), and Hill curves are shown in FIG. 8 (b).
# Normalized emission spectra of BCa1 containing free Ca^2+ (2.5 mM) in LUVs composed of DPPC/CHL (black curve), DOPC/sphingomyelin/CHL (1:1:1, raft mixture, blue curve) and DOPC (pink curve) at 25±0.5° C. are shown in FIG. 9 (a), and normalized emission spectra of BCa1 in HeLa cells are shown in FIG. 9 (b). […]
# [9] = Two-photon measurement in BCa1-labeled HeLa cells; assay type: cell-based
# Procedure: HeLa cells were cultured in Dulbecco's modified Eagle's medium (DMEM; Gibco) supplemented with heat-inactivated 10% (v/v) fetal bovine serum (FBS; Gibco), 100 units/mL penicillin and 100 μg/mL streptomycin. The cells were grown under a humidified environment at 37° C. with air/CO2=95:5. Four days before imaging, the cells were harvested with a trypsin-EDTA solution and were transferred to a glass-bottomed dish (MatTek) with […]. The cells were treated at 37° C. for 20 minutes with 2 μM ANa1, and then loaded with 0.5 μM BCa1 at room temperature. 10 minutes later, the cells were imaged after washing 2 times with a reduced calcium-balanced salt solution (RCBSS; 127 mM NaCl, 3.8 mM KCl, 1.2 mM KH2PO4, 0.8 mM MgCl2, 5 mM glucose and 10 mM HEPES buffer).
# Two-photon fluorescence microscopic images of the probe-labeled HeLa cells and tissues were obtained using spectral confocal and multiphoton microscopes (Leica TCS SP2).
# [10] = Relative fluorescence intensity for various cations; settings: 1 μM BCa1
# Procedure: as §1
# [11] = two-photon process (value in parentheses)
# [12] = with cation (BCa1 + Ca2+, ANa1 + Na+)
λ^(2)max two-photon excitation wavelength [1] [nm],δΦ two-photon operational cross section [1] [GM],λ^(1)max one-photon absorption wavelength ([3]; probe without added cation) [nm],λ^flmax one-photon emission wavelength ([3]; probe without added cation) [nm],Φ fluorescence photon efficiency ([3]; probe without added cation),"λ^(1)max one-photon absorption wavelength [3, 12] [nm]","λ^flmax one-photon emission wavelength [3, 12] [nm]","Φ fluorescence photon efficiency [3, 12]",effect of pH on one-photon fluorescence intensity [5],solubility of BCa1 in water [7],maximum emissions of the two Gaussian curves fitted to the emission spectrum [8],maximum emissions of the two Gaussian curves fitted to the emission spectrum [9],Compound,FEF fluorescence enhancement factor (F − Fmin)/Fmin ([2]; one-photon process),"FEF fluorescence enhancement factor (F − Fmin)/Fmin [2, 11]",Φ fluorescence quantum yield of the reference [4],FEF fluorescence enhancement factor (F − Fmin)/Fmin ([6]; one-photon process),"FEF fluorescence enhancement factor (F − Fmin)/Fmin [6, 11]","fluorescence response to Fe^2+, Cu^2+ and Co^2+ [10]","fluorescence response to Mg^2+, Zn^2+ and Mn^2+ [10]"
780,95,367,500,0.08,367,500,0.65,,,,,"COc1ccccc1N1CCOCCOCCN(c2ccc(NC(=O)CN(C)c3ccc4cc(C(C)=O)ccc4c3)cc2OC)CCOCC1 [ANa1, reference compound]",8(8),8(8),,,,,
,,,,,,,,,,,,CCNc1cc2oc(=O)cc(C(F)(F)F)c2cc1C [coumarin 307],,,0.95,,,,
780,150,360,470,0.07,360,470,0.98,not affected by pH,about 5.0 μM,436 nm and 467 nm,430 nm and 460 nm,CN(CC(=O)Nc1ccc(N(CC(=O)O)CC(=O)O)c(OCC(=O)N2CCOCC2)c1)c1ccc2cc(-c3nc4ccccc4o3)ccc2c1 [BCa1],,,,13,14,no response at all,weak responses
